Measurements as given in patent publication US11148998B2, “Dimethyl-nonatetraenyl-trimethyl-cyclohexyl compounds and uses thereof” (The Regents of the University of Michigan, priority 2017, dated 2021).

Key:
human dermal fibroblasts [1] = assay: Retinoid-induced fibroblast survival under low-calcium conditions; format: cell-based; conditions: for protection of fibroblasts from lysis (percentage of initially present cells still viable): 0.1 to 5 μg/mL
Experimental: Human dermal fibroblasts are isolated from skin biopsies as described previously and grown in monolayer culture using DMEM supplemented with 10% fetal bovine serum as culture medium (see, e.g., Varani J, et al., J Clin Invest. 1994; 94; Varani J, et al., J. Invest. Dermatol. 94:717-723, 1990). Growth is at 37° C. in a humidified atmosphere containing 5% CO2 and 95% air. For experimental studies, cells are plated at 5×10^4 cells per well in wells of a 24-well culture dish in the same culture medium. One day later, cells are washed and the DMEM culture medium is replaced with Keratinocyte Basal Medium (KBM).
In this assay, low-passage human dermal fibroblasts are grown for three days in Keratinocyte Basal Medium (KBM) at a calcium concentration (0.1 mM) that is too low to support survival. […] How retinoids act to prevent fibroblast lysis is not fully understood, but part of the mechanism involves modulation of calcium transit across the cell membrane in the presence of the active retinoids (see, e.g., Varani J, et al., Am. J. Path. 136:1275-1281, 1990; Varani K, et al., Am J. Pathol. 147:718-729, 1995; Varani J, et al., Amer. J. Pathol. 148: 1307-1312, 1996).

human dermal fibroblasts [2] = assay: Generation of pro-inflammatory cytokines by fibroblasts (multiplex ELISA); format: cell-based; conditions: KBM 1.5 mM calcium, two days, culture fluids
Experimental: Fibroblasts were grown in KBM supplemented with 1.5 mM calcium (i.e., as in the fibroblast cytotoxicity assay) for two days. Culture fluids obtained at the end of the incubation period were assessed for several pro-inflammatory cytokines using a multiplex (ELISA-type) assay. Values shown are means and ranges based on duplicate samples in a single experiment. The experiment was repeated two times with similar results.
It is believed that the pro-inflammatory cytokines are “drivers” of the retinoid-induced skin irritation response. […] In this experiment, fibroblasts were cultured for two days in KBM supplemented with 1.5 mM calcium (i.e., as in the cytotoxicity assay). Culture fluids were collected after two days of incubation and subjected to a multiplex enzyme-linked immunosorbant assay (ELISA) for the following cytokines: TNF-α, IL-1β, IL-6, IL-8, MCP-1 and CXCL-1.

[3] = system: human epidermal keratinocytes; assay: Retinoid-induced keratinocyte desquamation (cell-cell detachment, trypsin/EDTA); format: cell-based; conditions: two days, KBM 1.5 mM calcium
Experimental: At the end of the incubation period, the cells were exposed to a combination of trypsin and EDTA and the percentage of cells that detached from one another were assessed over time.
Human epidermal keratinocytes are isolated from the same skin biopsies as fibroblasts and grown in monolayer culture using Keratinocyte Growth Medium (KGM) as described previously (see, e.g., Varani J, et al., J Clin Invest. 1994; Varani J, et al., J. Invest. Dermatol. 94:717-723, 1990; Varani J, et al., J. Invest. Dermatol. 1989; 93:449-454). Growth is at 37° C. in a humidified atmosphere containing 5% CO2 and 95% air. For some studies, experiments use the HaCat line of immortalized human epidermal keratinocytes in place of primary or low-passage cells. Growth for these cells is exactly as with low-passage keratinocytes.
When keratinocytes are grown in monolayer culture, proliferation is optimal under low-calcium (0.05-0.15 mM) conditions. When the calcium concentration is raised to 1.5 mM, the keratinocyte differentiation occurs and proliferation slows. Under such conditions, strong cell-cell connections are made. […] The end result is that cells separate more easily from one another (see, e.g., Varani J, et al., J. Invest. Dermatol. 1989; 93:449-454; Varani J, et al., J Invest. Dermatol. 97:917-921, 1991; Varani J, et al., Am. Path. 138:887-895, 1991). Retinoid efficacy in acne is dependent, in part at least, on reduced epidermal cohesion and ability of acne lesional skin to slough during washing.
As a way to quantify detachment, keratinocytes grown for 2 days in culture medium containing 1.5 mM calcium were washed and exposed to a combination of trypsin and EDTA. Cell detachment from neighboring cells was assessed at timed intervals.

rhino mouse skin = assay: Rhino mouse topical treatment: gross skin irritation (modified Draize scale); format: in vivo; conditions: for gross skin appearance / irritation: topical daily for 21 days, photographed Day 22, ATRA as 35 mg of 0.1% cream, Examples in DMSO
Experimental: FIGS. 10A-C: Lack of Dose-related skin irritation after 21 day topical treatment of rhino mice with 100 μL DMSO control (10A) and 100 μL DMSO containing Example 2 at 0.1 (10B) and 0.3% concentrations (10C).
FIG. 11. […] The cumulative irritation score is a modified version of the Draize irritation scale, and the animals were assessed daily by an assessor who was blinded to the treatment given each mouse.
Rhino mice (HRS\J hr^rhhr^rh)) were obtained from Jackson Laboratories. Animals were recent weanlings; at this stage in the life of the rhinomouse, the phenotype (i.e., skin with numerous horn-filled utriculi) is well expressed and continues to be for several weeks. Both males and females were included. Animals were divided into treatment groups. Once in the laboratory, the mice were kept in temperature- and humidity-controlled rooms. All procedures during the in-life portion of the study were carried out in facilities of the Unit for Laboratory Animal Medicine (ULAM) at the University of Michigan—which is an AAALAC-certified institution. All procedures were carried out with approval by the University of Michigan Institutional Animal Care and Use Committee (IACUC).
As a control, Tretinoin-0.1% was used. […] This is a commonly-prescribed anti-acne medicine.
Animals were housed individually during the treatment phase of the study. During the treatment phase, animals were assessed daily for overall health, and for signs of skin irritation. The Draize scale was used to assess skin irritation. The Draize scale evaluates the parameters of erythema and edema. Each parameter was scored between 0 and 4+ with 0 indicating no difference from control mice and 4+ indicating maximum erythema or edema. In addition, animals were assessed for dryness/flaking/cracking (single score). The overall irritation score was a compilation of the three parameters in all mice from a treatment group. During the treatment phase, animals were weighed weekly.
FIG. 1 left provides a summation of the skin irritation response in the different treatment groups. In control mice, there was little evidence of skin irritation at any time throughout the study. […] The initial spike in irritation was followed by a dip and then secondary rise. This is consistent with what is typically seen with ATRA. […] Neither the control mouse nor the Compound 1 & 2 treated mice show visible signs of irritation in the skin. In contrast, skin from the ATRA-treated mouse is red, dry and flaky. Small cracks in the skin can be seen and there is significant edema.

In the case of CC1=C(/C=C/C(C)=C/C=C/C(C)=C/C(=O)O)C(C)(C)CCC1 [ATRA, all-trans retinoic acid, reference compound], the “fall-off in cell numbers” value (human dermal fibroblasts [1]; 5 μg/mL, low-calcium survival assay) is reported as “incipient toxicity”, the “concentration at which protection was optimal” value (human dermal fibroblasts [1]; KBM 0.1 mM calcium, three days) is reported as 1.0 µg/mL and the “protection of fibroblasts from lysis (percentage of initially present cells still viable)” value (human dermal fibroblasts [1]; KBM 0.1 mM calcium, three days) is reported as “capable of protecting fibroblasts from lysis under low-calcium conditions”. For the same compound, the “induction of pro-inflammatory cytokines (TNF-α, IL-1β, IL-6, IL-8, MCP-1, CXCL-1)” value (“induction of pro-inflammatory cytokines” below) (human dermal fibroblasts [2]) was “induced a strong up-regulation of several cytokines”, the “ease of cell-cell separation (percentage of cells detached over time)” value (“ease … (percentage of cells detached over time)” for short) ([3]; 1.0 μg/mL) was “increased the ease of cell-cell separation as compared to control” and the “cumulative irritation score (modified Draize scale)” value (rhino mouse skin; 0.1% topical daily for 21 days) was “far more irritant”. For the same compound, the “gross skin appearance / irritation” value (rhino mouse skin) was “considerable skin irritation, along with excessive skin flaking”.

In the case of CC1=C(/C=C/C(C)=C\C=C\C(C)=C\C(=O)N(C)CC(=O)C(C)(C)C)C(C)(C)CCC1 [Example 1, (2E,4E 6Z,8E)-N-(3,3-dimethyl-2-oxobutyl)-N,3,7-trimethyl-9-(2,6,6-trimethylcyclohex-1-en-1-yl)nona-2,4,6,8-tetraenamide], the “protection of fibroblasts from lysis (percentage of initially present cells still viable)” value (human dermal fibroblasts [1]; KBM 0.1 mM calcium, three days) is reported as “capable of protecting fibroblasts from lysis under low-calcium conditions”, the “protection of fibroblasts from lysis (percentage of initially present cells still viable)” value (human dermal fibroblasts [1]; KBM 0.1 mM calcium, three days, listed as Compound 1) is reported as “as effective as ATRA” and the “induction of pro-inflammatory cytokines” value (human dermal fibroblasts [2]) is reported as “no evidence of cytokine induction at the highest concentration”. For the same compound, the “induction of pro-inflammatory cytokines” value (human dermal fibroblasts [2]; listed as Compound 1) was “not observed”, the “ease … (percentage of cells detached over time)” value ([3]; 1.0 μg/mL) was “more potent than ATRA” and the “gross skin appearance / irritation” value (rhino mouse skin) was “normal rhino mouse appearance”.

With CC1=C(/C=C/C(C)=C\C=C\C(C)=C\C(=O)N(C)CC(=O)c2ccccc2)C(C)(C)CCC1 [Example 2, (2E,4E 6Z,8E)-N,3,7-trimethyl—N-(2-oxo-2-phenylethyl)-9-(2,6,6-trimethylcyclohex-1-en-1-yl)nona-2,4,6,8-tetraenamide] the “protection of fibroblasts from lysis (percentage of initially present cells still viable)” value (human dermal fibroblasts [1]; KBM 0.1 mM calcium, three days) was “capable of protecting fibroblasts from lysis under low-calcium conditions”, the “induction of pro-inflammatory cytokines” value (human dermal fibroblasts [2]) was “no evidence of cytokine induction at the highest concentration” and the “induction of pro-inflammatory cytokines” value (human dermal fibroblasts [2]; listed as Compound 2) was “not observed”. For the same compound, the “ease … (percentage of cells detached over time)” value ([3]; 2.5 μg/mL) was “comparable to ATRA at 1 μg/mL”, the “signs of serious skin irritation” value (rhino mouse skin; 0.1% and 0.3% in DMSO, topical, 21 days) was “did not show any signs of serious skin irritation at either dose” and the “gross skin appearance / irritation” value (rhino mouse skin) was “normal rhino mouse appearance”.
